In one assay the target is T1, HDAC-1 (Homo sapiens, UniProt Q13547).
T1 construct: made in house; host or cells: Sf9 or Sf21 insect cells (baculovirus, donor vector pFB-GSTX3)
Kind of assay: HDAC inhibition assay (purified GST-HDAC protein). Type of assay: biochemical. The text has this: The baculovirus donor vector pFB-GSTX3 was used to generate a recombinant baculovirus that can express the HDAC polypeptide. Transfer vectors containing the HDAC coding region were transfected into the DH10Bac cell line (GIBCO) and plated on selective agar plates. Colonies without insertion of the fusion sequence into the viral genome (carried by the bacteria) were blue. Single, white colonies were picked and viral DNAs (bacmid) were isolated from the bacteria by standard plasmid purification procedures. Sf9 cells or Sf21 (American Type Culture Collection) cells were then transfected in […] flasks with the viral DNA using Cellfectin reagent.
Virus-containing media was collected from the transfected cell culture and used for infection to increase its titer. Virus-containing media obtained after two rounds of infection was used for large-scale protein expression. For large-scale protein expression 100 cm^2 round tissue culture plates were seeded with 5×10^7 cells/plate and infected with 1 mL of virus-containing media (at an approximately MOI of 5). After 3 days, the cells were scraped off the plate and centrifuged at 500 rpm for 5 minutes. Cell pellets from 10-20, 100 cm^2 plates, were re-suspended in 50 mL of ice-cold lysis buffer (25 mM tris-HCl, pH 7.5, 2 mM EDTA, 1% NP-40, 1 mM DTT, 1 mM P MSF). The cells were stirred on ice for 15 minutes and then centrifuged at 5,000 rpms for 20 minutes.
The centrifuged cell lysate was loaded onto a 2 mL glutathione-sepharose column (Pharmacia) and was washed thrice with 10 mL of 25 mM tris-HCl, pH 7.5, 2 mM EDTA, 1 mM DTT, 200 mM NaCl. The GST-tagged proteins were then eluted by 10 applications (1 mL each) of 25 mM tris-HCl, pH 7.5, 10 mM reduced-glutathione, 100 mM NaCl, 1 mM DTT, 10% glycerol and stored at −70° C.
HDAC assays with purified GST-HDAC protein were carried out in a final volume of 30 μL containing 15 ng of GST-HDAC protein, 20 mM tris-HCl, pH 7.5, 1 mM MnCl2, 10 mM MgCl2, 1 mM DTT, 3 μg/mL poly(Glu,Tyr) 4:1, 1% DMSO, 2.0 μM ATP (γ-[^33P]-ATP 0.1 μCi). The activity was assayed in the presence or absence of inhibitors. The assay was carried out in 96-well plates at ambient temperature for 15 minutes under conditions described below and terminated by the addition of 20 μL of 125 mM EDTA. Subsequently, 40 μL of the reaction mixture were transferred onto EMMOBILON-PVDF membrane (Millipore) previously soaked for 5 minutes with methanol, rinsed with water, then soaked for 5 minutes with 0.5% H3PO4 and mounted on vacuum manifold with disconnected vacuum source. After spotting all samples, a vacuum was connected and each well rinsed with 200 μL 0.5% H3PO4. Membranes were removed and washed four times on a shaker with 1.0% H3PO4, once with ethanol. Membranes were counted after drying at ambient temperature, mounting in Packard TopCount 96-well frame, and addition of 10 μL/well of MICROSCINT™ (Packard). IC50 values were calculated by linear regression analysis of the percentage inhibition of each compound in duplicate, at 4 concentrations (usually 0.01, 0.1, 1 and 10 μM).
• Input: 3×4 μL stopped assay on IMMOBILON membrane, not washed • Background (3 wells): assay with H2O instead of enzyme • Positive control (4 wells): 3% DMSO instead of compound • Bath control (1 well): no reaction mix
IC50 values were calculated by logarithmic regression analysis of the percentage inhibition of each compound at 4 concentrations (usually 3- or 10-fold dilution series starting at 10 μM). In each experiment, the actual inhibition by reference compound was used for normalization of IC50 values to the basis of an average value of the reference inhibitor: Normalized IC50=measured IC50 average ref IC50/measured ref IC50
Example: Reference inhibitor in experiment 0.4 μM, average 0.3 μM, Test compound in experiment 1.0 μM, normalization: 0.3/0.4=0.75 μM
For example, known HDAC inhibitors or a synthetic derivative thereof may be used as reference compounds.

The subject of another assay is HCT116. Kind of assay: HCT116 IC50. Type of assay: cell-based. Conditions: Homo sapiens, HCT-116.

T1 sequence (Q13547 whole entry, species assumed): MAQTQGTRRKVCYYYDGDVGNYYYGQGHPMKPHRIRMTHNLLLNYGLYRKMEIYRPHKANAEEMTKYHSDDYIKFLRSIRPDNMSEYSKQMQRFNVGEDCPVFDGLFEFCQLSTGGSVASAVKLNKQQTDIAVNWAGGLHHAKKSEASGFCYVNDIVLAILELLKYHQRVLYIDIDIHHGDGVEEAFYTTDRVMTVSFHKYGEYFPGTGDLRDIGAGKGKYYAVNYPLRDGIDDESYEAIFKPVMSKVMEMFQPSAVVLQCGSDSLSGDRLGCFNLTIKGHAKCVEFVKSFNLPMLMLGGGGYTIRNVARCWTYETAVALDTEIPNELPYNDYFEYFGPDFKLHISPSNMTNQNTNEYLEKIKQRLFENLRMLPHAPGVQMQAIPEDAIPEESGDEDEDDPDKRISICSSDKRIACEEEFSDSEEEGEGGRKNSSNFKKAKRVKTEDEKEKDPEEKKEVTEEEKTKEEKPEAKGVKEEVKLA

Turning to `O=C(/C=C/c1ccc(C2CCCN2CCc2ccc(Cl)c(Cl)c2)cc1)NO` (stereo not drawn) [Compound 23, (E)-3-(4-{1-[2-(3,4-Dichloro-phenyl)-ethyl]-pyrrolidin-2-yl}-phenyl)-N-hydroxy-acrylamide], the IC50 was 19 nM against HDAC-1 and 97 nM in the assay with HCT116.
As for `Cc1nn(C)c(C)c1CCN1CCC[C@H]1c1ccc(CCC(=O)NO)cc1` [Compound 112, N-Hydroxy-3-(4-{(S)-1-[2-(1,3,5-trimethyl-1H-pyrazol-4-yl)-ethyl]-pyrrolidin-2-yl}-phenyl)-propionamide], the figures for the IC50 on HDAC-1 and in the assay on HCT116 were 10 nM and 30 nM, respectively.
For `Cc1[nH]c2ccccc2c1CC(=O)N1CCCC1c1ccc(/C=C/C(=O)NO)cc1` (stereo not drawn) [Compound 12, (E)-N-Hydroxy-3-(4-{1-[2-(2-methyl-1H-indol-3-yl)-acetyl]-pyrrolidin-2-yl}-phenyl)-acrylamide], the IC50 was determined as 4 nM against HDAC-1 and 96 nM in the assay with HCT116.
At HDAC-1, `Cc1n[nH]c(C)c1CCN1CCC[C@@H]1c1ccc(/C=C/C(=O)NO)cc1` [Compound 117, (E)-3-(4-{(R)-1-[2-(3,5-Dimethyl-1H-pyrazol-4-yl)-ethyl]-pyrrolidin-2-yl}-phenyl)-N-hydroxy-acrylamide] showed an IC50 of 12 nM.
For the molecule `CC(C)n1nnnc1CCN1CCC[C@H]1c1ccc(/C=C/C(=O)NO)cc1` [Compound 102, (E)-N-Hydroxy-3-(4-{(S)-1-[2-(1-isopropyl-1H-tetrazol-5-yl)-ethyl]-pyrrolidin-2-yl}-phenyl)-acrylamide], the values for the IC50 against HDAC-1 and in the assay with HCT116 were 25 nM and 32 nM, respectively.
On the same counts, the results for `Cn1nnc(CCN2CCC[C@H]2c2ccc(/C=C/C(=O)NO)cc2)n1` [Compound 81, (E)-N-Hydroxy-3-(4-{(S)-1-[2-(2-methyl-2H-tetrazol-5-yl)-ethyl]-pyrrolidin-2-yl}-phenyl)-acrylamide] are 67 nM and 230 nM.
For `O=C(/C=C/c1ccc(C2CCCN2CCc2ccccn2)cc1)NO` (stereo not drawn) [Compound 34, (E)-N-Hydroxy-3-{4-[1-(2-pyridin-2-yl-ethyl)-pyrrolidin-2-yl]-phenyl}-acrylamide], the IC50 at HDAC-1 worked out at 21 nM; with HCT116, 77 nM.
Regarding `O=C(/C=C/c1ccc([C@@H]2CCCN2CCc2cnn3ccccc23)cc1F)NO` [Compound 93, (E)-3-{2-Fluoro-4-[(S)-1-(2-pyrazolo[1,5-a]pyridin-3-yl-ethyl)-pyrrolidin-2-yl]-phenyl}-N-hydroxy-acrylamide], the results for the IC50 against HDAC-1 and with HCT116 were 1.4 nM and 1.1 nM, respectively.
Regarding `O=C(/C=C/c1ccc([C@@H]2CCCN2CCc2nnn(C3CCC3)n2)cc1)NO` [Compound 105, (E)-3-(4-{(S)-1-[2-(2-Cyclobutyl-2H-tetrazol-5-yl)-ethyl]-pyrrolidin-2-yl}-phenyl)-N-hydroxy-acrylamide], the values for the IC50 against HDAC-1 and in the assay with HCT116 were 120 nM and 160 nM, respectively.
For `Cc1nc2ccccn2c1CCN1CCC[C@H]1c1ccc(/C=C/C(=O)NO)cc1` [Compound 54, (E)-N-Hydroxy-3-(4-{(S)-1-[2-(2-methyl-imidazo[1,2-a]pyridin-3-yl)-ethyl]-pyrrolidin-2-yl}-phenyl)-acrylamide], the IC50 was determined as 3 nM against HDAC-1 and 4 nM in the assay with HCT116.
For the molecule `O=C(/C=C/c1ccc([C@@H]2CCCN2CCn2cccn2)cc1)NO` [Compound 63, (E)-N-Hydroxy-3-{4-[(S)-1-(2-pyrazol-1-yl-ethyl)-pyrrolidin-2-yl]-phenyl}-acrylamide], the IC50 turned out to be 42 nM at HDAC-1 and 180 nM in the assay with HCT116.
Turning to `Cc1nn2ccccc2c1CCN1CCC[C@@H]1c1ccc(/C=C/C(=O)NO)cc1` [Compound 45, (E)-N-Hydroxy-3-(4-{(R)-1-[2-(2-methyl-pyrazolo[1,5-a]pyridin-3-yl)-ethyl]-pyrrolidin-2-yl}-phenyl)-acrylamide], the results for the IC50 at HDAC-1 and in the assay with HCT116 were 2.4 nM and 8 nM, respectively.
`O=C(/C=C/c1ccc([C@@H]2CCCCCN2CCc2cnn3ccccc23)cc1)NO` [Compound 86, (E)-N-Hydroxy-3-{4-[(S)-1-(2-pyrazolo[1,5-a]pyridin-3-yl-ethyl)-azepan-2-yl]-phenyl}-acrylamide]: the IC50 is 10 nM against HDAC-1 and 42 nM in the assay on HCT116.
On the same counts, the results for `O=C(/C=C/c1ccc(C2CCCN2CCCc2ccccc2)cc1)NO` (stereo not drawn) [Compound 33, (E)-N-Hydroxy-3-{4-[1-(3-phenyl-propyl)-pyrrolidin-2-yl]-phenyl}-acrylamide] are 5 nM and 39 nM.
As for `Cn1cc(CCN2CCC[C@H]2c2ccc(/C=C/C(=O)NO)cc2)cn1` [Compound 59, (E)-N-Hydroxy-3-(4-{(S)-1-[2-(1-methyl-1H-pyrazol-4-yl)-ethyl]-pyrrolidin-2-yl}-phenyl)-acrylamide], the IC50 on HDAC-1 was 8 nM; with HCT116 it was 35 nM.
On the same counts, the results for `O=C(/C=C/c1ccc(C2CCCN2CC2CCCC2)cc1)NO` (stereo not drawn) [Compound 40, (E)-3-[4-(1-Cyclopentylmethyl-pyrrolidin-2-yl)-phenyl]-N-hydroxy-acrylamide] are 9 nM and 42 nM.
As to `O=C(/C=C/c1ccc([C@@H]2CCCN2CCc2c(-c3cccnc3)nn3ccccc23)cc1)NO` [Compound 50, (E)-N-Hydroxy-3-(4-{(S)-1-[2-(2-pyridin-3-yl-pyrazolo[1,5-a]pyridin-3-yl)-ethyl]-pyrrolidin-2-yl}-phenyl)-acrylamide], the IC50 is 1 nM against HDAC-1 and 0.4 nM with HCT116.
For the molecule `O=C(/C=C/c1ccc([C@@H]2CCCN2CCc2ccc(Cl)cc2)cc1)NO` [Compound 22, (E)-3-(4-{(S)-1-[2-(4-Chloro-phenyl)-ethyl]-pyrrolidin-2-yl}-phenyl)-N-hydroxy-acrylamide], the IC50 on HDAC-1 was determined as 7 nM; with HCT116 it was 13 nM.
Take `CC(C)(C)c1[nH]c2cc(NS(C)(=O)=O)ccc2c1CCN1CCCC1c1ccc(/C=C/C(=O)NO)cc1` (stereo not drawn) [Compound 10, (E)-3-(4-{1-[2-(2-tert-Butyl-6-methanesulfonylamino-1H-indol-3-yl)-ethyl]-pyrrolidin-2-yl}-phenyl)-N-hydroxy-acrylamide]: the IC50 amounted to 3 nM at HDAC-1 and 2 nM with HCT116.
`O=C(/C=C/c1ccc(C2CCCN2CCc2cnc3ccccn23)cc1)NO` (stereo not drawn) [Compound 53, (E)-N-Hydroxy-3-{4-[1-(2-imidazo[1,2-a]pyridin-3-yl-ethyl)-pyrrolidin-2-yl]-phenyl}-acrylamide]: the IC50 at HDAC-1 came to 0.9 nM; in the assay with HCT116, 1 nM.
For `Cc1nn(CC2CCOCC2)c(C)c1CCN1CCC[C@H]1c1ccc(/C=C/C(=O)NO)cc1` [Compound 109, (E)-3-[4-((S)-1-{2-[3,5-Dimethyl-1-(tetrahydro-pyran-4-ylmethyl)-1H-pyrazol-4-yl]-ethyl}-pyrrolidin-2-yl)-phenyl]-N-hydroxy-acrylamide], the IC50 on HDAC-1 worked out at 3.2 nM.
Still for that read-out and setting: the value for `Cc1n[nH]c(C)c1CCN1CCC[C@H]1c1ccc(CCC(=O)NO)cc1` [Compound 119, 3-(4-{(S)-1-[2-(3,5-Dimethyl-1H-pyrazol-4-yl)-ethyl]-pyrrolidin-2-yl}-phenyl)-N-hydroxy-propionamide] was 155 nM; that for `CC(C)(O)c1nn2ccccc2c1CCN1CCC[C@H]1c1ccc(CCC(=O)NO)cc1` [Compound 113, N-Hydroxy-3-[4-((S)-1-{2-[2-(1-hydroxy-1-methyl-ethyl)-pyrazolo[1,5-a]pyridin-3-yl]-ethyl}-pyrrolidin-2-yl)-phenyl]-propionamide] was 75 nM.

For orientation: IC50 means the midpoint of a concentration-inhibition curve. A lower IC50 goes with greater potency.

These data come from patent US8349883B2, “Hydroxamate-based inhibitors of deacetylases B” (Novartis AG, priority 2008, dated 2013).
